Source: PubChem BioAssay (NCI)
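Cells were grown in 96-well plates and exposed to each compound for 48 hours at five concentrations; endpoints were interpolated linearly between bracketing concentrations, or set to the highest concentration if not reached. Abbreviation: GI50, concentration required for 50% inhibition of growth. Definition used: TGI = concentration required for complete inhibition of growth.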

Assays:
Assay in all cases: NCI tumour cell line growth inhibition, 48 h
[1] = system: 786-0 renal
[2] = system: A498 renal
[3] = system: A549 NSCLC
[4] = system: ACHN renal
[5] = system: BT-549 breast
[6] = system: CAKI-1 renal
[7] = system: CCRF-CEM leukemia
[8] = system: COLO 205 colon
[9] = system: DU-145 prostate
[10] = system: EKVX NSCLC
[11] = system: HCC-2998 colon
[12] = system: HCT-116 colon
[13] = system: HCT-15 colon
[14] = system: HL-60(TB) leukemia
[15] = system: HOP-62 NSCLC
[16] = system: HOP-92 NSCLC
[17] = system: HS 578T breast
[18] = system: HT29 colon
[19] = system: K-562 leukemia
[20] = system: KM12 colon
[21] = system: LOX IMVI melanoma
[22] = system: M14 melanoma
[23] = system: MCF7 breast
[24] = system: MDA-MB-231 breast
[25] = system: MDA-MB-435
[26] = system: MOLT-4 leukemia
[27] = system: NCI-H226 lung
[28] = system: NCI-H23 lung
[29] = system: NCI-H460 lung
[30] = system: NCI-H522 lung
[31] = system: NCI/ADR-RES ovarian
[32] = system: OVCAR-3 ovarian
[33] = system: OVCAR-4 ovarian
[34] = system: OVCAR-5 ovarian
[35] = system: OVCAR-8 ovarian
[36] = system: PC-3 prostate
[37] = system: RPMI-8226 leukemia
[38] = system: SF-268 CNS
[39] = system: SF-295 CNS
[40] = system: SF-539 CNS
[41] = system: SK-MEL-2 melanoma
[42] = system: SK-MEL-28 melanoma
[43] = system: SK-MEL-5 melanoma
[44] = system: SK-OV-3 ovarian
[45] = system: SN12C renal
[46] = system: SNB-19 CNS
[47] = system: SNB-75 CNS
[48] = system: SR leukemia
[49] = system: SW-620 colon
[50] = system: T-47D breast
[51] = system: TK-10 renal
[52] = system: U251 CNS
[53] = system: UACC-62 melanoma
[54] = system: UO-31 renal

## O=C1c2cc3c(cc2-c2c1c1ccc([N+](=O)[O-])cc1c(=O)n2CCCCl)OCO3
[1]
  GI50: 198 nM
  TGI: > 100000 nM
[2]
  GI50: 367 nM
  TGI: 5930 nM
[3]
  GI50: 523 nM
  TGI: > 100000 nM
[4]
  GI50: 70.7 nM
  TGI: 234 nM
[5]
  GI50: 308 nM
  TGI: 24500 nM
[6]
  GI50: 26.8 nM
  TGI: 76600 nM
[7]
  GI50: 279 nM
  TGI: > 100000 nM
[8]
  GI50: 567 nM
  TGI: > 100000 nM
[9]
  GI50: 122 nM
  TGI: > 100000 nM
[10]
  GI50: 6130 nM
  TGI: > 100000 nM
[11]
  GI50: 489 nM
  TGI: 5430 nM
[12]
  GI50: 6380 nM
  TGI: > 100000 nM
[13]
  GI50: 2090 nM
  TGI: > 100000 nM
[14]
  GI50: 328 nM
  TGI: > 28800 nM
[15]
  GI50: 383 nM
  TGI: > 100000 nM
[16]
  TGI: > 100000 nM
[17]
  GI50: > 100000 nM
  TGI: > 100000 nM
[18]
  GI50: 1070 nM
  TGI: > 100000 nM
[19]
  TGI: > 100000 nM
[20]
  GI50: 2270 nM
  TGI: > 100000 nM
[21]
  GI50: 74.2 nM
  TGI: > 100000 nM
[22]
  GI50: 1520 nM
  TGI: > 100000 nM
[23]
  GI50: 333 nM
[24]
  TGI: > 24900 nM
[25]
  GI50: 1220 nM
  TGI: > 100000 nM
[26]
  GI50: 52.8 nM
  TGI: > 100000 nM
[27]
  GI50: 409 nM
  TGI: 9090 nM
[28]
  GI50: 285 nM
[29]
  GI50: 27.7 nM
  TGI: > 100000 nM
[30]
  GI50: > 85900 nM
  TGI: > 100000 nM
[31]
  GI50: 74.3 nM
[32]
  GI50: 4800 nM
  TGI: > 100000 nM
[33]
  GI50: 7340 nM
  TGI: > 100000 nM
[34]
  GI50: 634 nM
  TGI: > 100000 nM
[35]
  GI50: > 100000 nM
  TGI: > 100000 nM
[36]
  GI50: 2400 nM
  TGI: > 100000 nM
[37]
  GI50: 275 nM
  TGI: > 26600 nM
[38]
  GI50: 102 nM
  TGI: > 100000 nM
[39]
  GI50: 66 nM
  TGI: > 100000 nM
[40]
  GI50: 145 nM
[41]
  GI50: > 100000 nM
  TGI: > 100000 nM
[42]
  GI50: 525 nM
  TGI: > 100000 nM
[43]
  GI50: 246 nM
  TGI: 2590 nM
[44]
  TGI: > 100000 nM
[45]
  GI50: 86.2 nM
  TGI: 503 nM
[46]
  GI50: 138 nM
  TGI: > 100000 nM
[47]
  GI50: 3350 nM
  TGI: > 100000 nM
[48]
  GI50: 15.8 nM
  TGI: 27800 nM
[49]
  GI50: 263 nM
  TGI: > 100000 nM
[50]
  TGI: > 100000 nM
[51]
  GI50: > 54300 nM
  TGI: > 100000 nM
[52]
  GI50: 82.8 nM
[53]
  GI50: 176 nM
  TGI: 2500 nM
[54]
  GI50: 307 nM
  TGI: > 100000 nM
